Laboratory results reported in patent US8034948B2, “Method for resolving omeprazole salts” (Universite de Rouen, priority 2007, dated 2011).
Structures can show the parent of a compound that is named as a salt.

Columns and labels:
Solubility measurements = type: physicochemical
Protocol: The solubility measurements are calculated, for a given temperature and for a given excess of potassium hydroxide, in the following way: [formula]

[1] = Stability of the potassium salt solvates (ambient atmosphere / alcoholic medium with excess potassium hydroxide); type: physicochemical
[2] = excess of potassium hydroxide in alcohol/alcohol or alcohol/water solvent mixtures or pure alcohol
[3] = in an ethanol-water mixture in which ethanol predominates, with an excess of potassium hydroxide

`COc1ccc2[nH]c([S+]([O-])Cc3ncc(C)c(OC)c3C)nc2c1` (racemic) [racemic mixture] showed a Solubility (Solubility measurements; absolute ethanol, 1.2 molar equivalents of potassium hydroxide, 26 °C) of 1.3 % by weight, a Solubility (Solubility measurements; absolute ethanol, 1.2 molar equivalents of potassium hydroxide, 30 °C) of 1.7 % by weight and a Solubility (Solubility measurements; absolute ethanol, 1.2 molar equivalents of potassium hydroxide, 33 °C) of 2.2 % by weight. The Solubility (Solubility measurements; ethanol/water (90/10% weight/weight), 1.2 molar equivalents of potassium hydroxide, 30 °C) was 25 % by weight, the “Solubility (coordinates of the point L)” value (Solubility measurements; ethanol/water (93/7% weight/weight), 1.2 molar equivalents of potassium hydroxide, 34.4 °C) was 20 % by weight and the Solubility (Solubility measurements; ethanol/water azeotropic mixture, 1.2 molar equivalents of potassium hydroxide, 29 °C) was 8.7 % by weight. For the same molecule, the Solubility (Solubility measurements; ethanol/water azeotropic mixture, 1.2 molar equivalents of potassium hydroxide, 31 °C) was 9.1 % by weight, the Solubility (Solubility measurements; ethanol/water azeotropic mixture, 1.2 molar equivalents of potassium hydroxide, 35 °C) was 13.7 % by weight and the “Solubility of the salt (in words)” value (Solubility measurements; in ethanol (Example 7)) was “low”. The Stability [1, 2] was “stable”.

For `COc1ccc2nc([S@@+]([O-])Cc3ncc(C)c(OC)c3C)[nH]c2c1` [pure enantiomer (S)-omeprazole, 5-methoxy-2-[(S)-[(4-methoxy-3,5-dimethyl-2-pyridinyl)methyl]sulphinyl]-1H-benzimidazole], the Stability [1, 2] was “stable”.

For `COc1ccc2nc([S@@+]([O-])Cc3ncc(C)c(OC)c3C)[nH]c2c1` [(S)-omeprazole, 5-methoxy-2-[(S)-[(4-methoxy-3,5-dimethyl-2-pyridinyl)methyl]sulphinyl]-1H-benzimidazole], the Stability [1, 3] was “stable”.

In the case of `COc1ccc2[nH]c([S+]([O-])Cc3ncc(C)c(OC)c3C)nc2c1` (racemic) [ethanol solvates of the potassium salt of racemic omeprazole], the Stability [1, 3] is reported as “stable”.
